Source: paper PMC11882969 (Nature Communications, 2025)
Several values for one entry are separate records, joined by “and”; a condition that tells them apart may be missing. Equal entries are not always repeated. Where two headings read alike, the source gives them in different places.

Biological target: hCB1 (Homo sapiens, UniProt P21554)
Assay: bioSensAll ebBRET signaling profiling, hCB1
Format: cell-based
Design: host or cells: HEK293SL cells, transient PEI transfection
Conditions: for Gi1 hCB1 response: Gi1 biosensor; for Gi1 hCB1 / GoB hCB1: single replicate values, FigS6a; for Emax [95% CI]: normalized to CP-55,940; for EC50: read-out: EC50 [95% CI]

Chain of hCB1 (P21554 whole entry): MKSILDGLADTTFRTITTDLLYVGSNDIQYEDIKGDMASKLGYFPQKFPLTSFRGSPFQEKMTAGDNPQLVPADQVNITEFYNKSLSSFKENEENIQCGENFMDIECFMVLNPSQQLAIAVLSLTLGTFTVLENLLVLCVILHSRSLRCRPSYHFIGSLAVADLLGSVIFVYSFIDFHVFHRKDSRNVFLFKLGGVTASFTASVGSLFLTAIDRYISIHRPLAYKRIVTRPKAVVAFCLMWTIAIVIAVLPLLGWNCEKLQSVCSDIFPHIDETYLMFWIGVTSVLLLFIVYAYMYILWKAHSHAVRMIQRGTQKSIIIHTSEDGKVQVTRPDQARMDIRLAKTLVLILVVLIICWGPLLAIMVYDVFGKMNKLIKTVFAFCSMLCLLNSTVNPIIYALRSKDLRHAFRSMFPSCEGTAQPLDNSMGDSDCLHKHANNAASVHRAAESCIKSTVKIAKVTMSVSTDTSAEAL

Cc1cc(C(=O)N2CC3(CCC3)[C@H]2[C@H]2CCCO2)nn1-c1cccc(C(F)(F)F)c1 [‘1651]
Gi1 hCB1 response (Log [Compound] (M) -4.22186): 137.59 | Gi1 hCB1 response (Log [Compound] (M) -4.63927): 96.9225 | Gi1 hCB1 response (Log [Compound] (M) -5.47381): 59.4112 | Gi1 hCB1 response (Log [Compound] (M) -5.89285): 34.5455 | Gi1 hCB1 response (Log [Compound] (M) -6.31878): 22.4595 | Gi1 hCB1 response (Log [Compound] (M) -6.72585): 13.9098 | Gi1 hCB1 response (Log [Compound] (M) -7.14267): 3.39 | Gi1 hCB1 response (Log [Compound] (M) -7.55284): 4.644 | Gi1 hCB1 response (Log [Compound] (M) -8): -4.488 | Gi1 hCB1 response (Log [Compound] (M) -8.22186): -3.346 | Gi1 hCB1 response (Log [Compound] (M) -8.39794): -8.628 | Gi1 hCB1 response (Log [Compound] (M) -8.68787): -2.138 | Gi1 hCB1 response (Log [Compound] (M) -9.15521): 13.7307 | Gi1 hCB1 response (Log [Compound] (M) -9.61989): 0.5704 | Gi1 hCB1 response (Log [Compound] (M) -10.0969): -10.7993 | Gi1 hCB1 response (Log [Compound] (M) -10.5529): 1.622 | Gi1 hCB1 response (Log [Compound] (M) -11.0177): 3.525 | Gi1 hCB1 response (Log [Compound] (M) -11.4949): -1.466 | Gi1 hCB1 response (Log [Compound] (M) -11.9208): -11.3141 | Gi1 hCB1 response (Log [Compound] (M) -12.3979): -0.1682 | Gi1 hCB1 response (Log [Compound] (M) -12.8861): 6.054 | Gi1 hCB1 response (Log [Compound] (M) -13, individual replicate values): -5.092 and 7.285 | Gi1 hCB1 (Log [Compound] (M) -4.22186): 86.9769 | GoB hCB1 (Log [Compound] (M) -4.22186): 103.232 | Gi1 hCB1 (Log [Compound] (M) -4.63927): 76.9098 | GoB hCB1 (Log [Compound] (M) -4.63927): 73.1818 | Gi1 hCB1 (Log [Compound] (M) -5.05788): 64.2374 | GoB hCB1 (Log [Compound] (M) -5.05788): 61.4566 | Gi1 hCB1 (Log [Compound] (M) -5.47381): 51.5496 | GoB hCB1 (Log [Compound] (M) -5.47381): 47.4476 | Gi1 hCB1 (Log [Compound] (M) -5.89285): 27.4072 | GoB hCB1 (Log [Compound] (M) -5.89285): 30.9928 | Gi1 hCB1 (Log [Compound] (M) -6.31878): 15.521 | GoB hCB1 (Log [Compound] (M) -6.31878): 20.7963 | Gi1 hCB1 (Log [Compound] (M) -6.72585): 7.211 | GoB hCB1 (Log [Compound] (M) -6.72585): 12.2902 | Gi1 hCB1 (Log [Compound] (M) -7.14267): 2.849 | GoB hCB1 (Log [Compound] (M) -7.14267): 6.553 | Gi1 hCB1 (Log [Compound] (M) -7.55284): 1.862 | GoB hCB1 (Log [Compound] (M) -7.55284): 3.478 | Gi1 hCB1 (Log [Compound] (M) -8): 1.7386 | GoB hCB1 (Log [Compound] (M) -8): 4.539 | Gi1 hCB1 (Log [Compound] (M) -8.22186): 1.384 | GoB hCB1 (Log [Compound] (M) -8.22186): -0.5679 | Gi1 hCB1 (Log [Compound] (M) -8.39794): 3.142 | GoB hCB1 (Log [Compound] (M) -8.39794): 1.554 | Gi1 hCB1 (Log [Compound] (M) -8.68787): 2.895 | GoB hCB1 (Log [Compound] (M) -8.68787): -1.036 | Gi1 hCB1 (Log [Compound] (M) -9.15521): 0.4282 | GoB hCB1 (Log [Compound] (M) -9.15521): -2.079 | Gi1 hCB1 (Log [Compound] (M) -9.61989): 2.402 | GoB hCB1 (Log [Compound] (M) -9.61989): 0.2413 | Gi1 hCB1 (Log [Compound] (M) -10.0969): 1.754 | GoB hCB1 (Log [Compound] (M) -10.0969): 3.298 | Gi1 hCB1 (Log [Compound] (M) -10.5529): 4.329 | GoB hCB1 (Log [Compound] (M) -10.5529): 1.32 | Gi1 hCB1 (Log [Compound] (M) -11.0177): 1.137 | GoB hCB1 (Log [Compound] (M) -11.0177): 2.867 | Gi1 hCB1 (Log [Compound] (M) -11.4949): 1.492 | GoB hCB1 (Log [Compound] (M) -11.4949): 0.4571 | Gi1 hCB1 (Log [Compound] (M) -11.9208): 0.7057 | GoB hCB1 (Log [Compound] (M) -11.9208): 3.784 | Gi1 hCB1 (Log [Compound] (M) -12.3979): 3.419 | GoB hCB1 (Log [Compound] (M) -12.3979): 6.338 | Gi1 hCB1 (Log [Compound] (M) -12.8861): 4.113 | GoB hCB1 (Log [Compound] (M) -12.8861): 5.3306 | Gi1 hCB1 (Log [Compound] (M) -13): -0.9593 and 2.509 | GoB hCB1 (Log [Compound] (M) -13): 4.899 and 2.867 | pEC50 [95% CI] (hCB1 Gi1): 5.5 [5.4 – 5.6] | Emax [95% CI] (hCB1 Gi1): 89 [84 – 94] | pEC50 [95% CI] (hCB1 GoB): 4.7 [4.1 – 5.4] | Emax [95% CI] (hCB1 GoB): 152 [94 – 208] | EC50 (hCB1 Gi1): 3.03 µM | EC50 (hCB1 GoB): 19.8 µM
